How the values were obtained:
[1] = tested on: INFα induced pSTAT5 in human PBMC; experiment: INFα induced pSTAT5 in human PBMC; format: cell-based; conditions: human PBMC, INFα 5000 units/ml; read-out: p-STAT5 IC50
JAK2 (JH1 domain) = JAK2 (JH1 domain) (Homo sapiens (Human), UniProt O60674); experiment: JAK2 JH1 domain binding assay (KINOMEscan)
Procedure: The assay is performed by combining three components: DNA-tagged kinase; immobilized ligand; and a test compound. The ability of the test compound to compete with the immobilized ligand is measured via quantitative PCR of the DNA tag.
The liganded beads were blocked with excess biotin and washed with blocking buffer (SeaBlock (Pierce), 1% BSA, 0.05% Tween 20, 1 mM DTT) to remove unbound ligand and to reduce non-specific binding. […] Test compounds were prepared as 111× stocks in 100% DMSO. All test compounds were shipped to DiscoverX in DMSO with concentration of 10 mM. Kds were determined using an 11-point 3-fold compound dilution series with three DMSO control points. Each compound was tested in duplicate. […] The compounds were then diluted directly into the assays such that the final concentration of DMSO was 0.9%. All reactions performed in polypropylene 384-well plate. Each was a final volume of 0.02 ml. […] The kinase concentration in the eluates was measured by qPCR.
The amount of kinase measured by qPCR (Signal; y-axis) is plotted against the corresponding compound concentration in nM in log 10 scale (x-axis). Binding constants (Kds) were calculated with a standard dose-response curve using the Hill equation:
Similar to the method for TYK2 JH2 binding described above, JAK1 JH2 and JAK2 JH1 domain binding assay was performed using DiscoverX's KINOMEscan™, but with change of kinase domain.

[2] = Pharmacokinetic study in Sprague Dawley rats; format: in vivo; conditions: rat, plasma; for Vd: read-out: Vdss
Procedure: (§1) The pharmacokinetics of test compounds were evaluated in male C57BL/6 mice, Sprague Dawley rats, Beagle dogs, and cynomolgus monkeys when administered via oral gavage and IV injection. The animals were fasted overnight before administration. Plasma samples were collected predose and at 0.5, 1, 3, 6, 9, 12, and 24 hours postdose. The samples were analyzed by LC/MS/MS and the concentration of test compound at each timepoint was determined by linear regression. Pharmacokinetic parameters were calculated from the plasma concentrations using Pheonix WinNonlin.

[3] = tested on: IL-2-induced pSTAT5 in human PBMC; experiment: IL-2-induced pSTAT5 in human PBMC; format: cell-based; conditions: IL-2 20 ng/ml
Procedure: (§2) Fresh Human PBMCs were resuspended in RPMI 1640 medium with 10% FBS. Cells were seeded in a round bottom 96-well plate at the concentration of 200,000 cells/well. A 10-point dilution series of test compound (top dose 10 uM, 1:5 dilution) was added to the well using the liquid dispenser (Tecan D300e) and incubated for 1 hour at 37 C. Then human IL-12 recombinant protein (R&D Systems) was added to the well at the final concentration of 10 ng/ml and incubated for 15 minutes at 37 C. Cell lysates were prepared and analyzed by Phospho STAT4 (Tyr693) Kit (Meso Scale Discovery) following manufacturer's protocol.
(§3) For calculation of the inhibition rate, the relative pSTAT4 signal of each well=pSTAT4 signal of each well−the average pSTAT4 signal of baseline. The inhibition %=(the average pSTAT4 signal of IL-12 treatment wells−the relative of pSTAT4 signal in each compound containing well)/the average pSTAT4 signal of IL-12 treatment wells*100%
(§4) The curve was plotted as the inhibition % (y-axis) vs. compounds concentration (x-axis) and was fitted with log(inhibitor) vs. normalized response—Variable slope by GraphPad Prism7.0. Control is BMS-986165:
(§5) Similar to the method for IL-12 induced pSTAT4 in human PBMC described above, these assays were performed to check if test compounds have cross-activity to JAK1. JAK2 and JAK3 pathways in human PBMC. The procedure is as described with change of stimuli to 10 ng/ml of GM-CSF or 20 ng/ml of IL-2.

JAK1 (JH2 domain) = JAK1 (JH2 domain) (Homo sapiens (Human), UniProt P23458); experiment: JAK1 JH2 domain binding assay (KINOMEscan); conditions: KINOMEscan; read-out: JAK1 (JH2 domain) binding Kd
Sequence of JAK1 (JH2 domain) (P23458 583-855): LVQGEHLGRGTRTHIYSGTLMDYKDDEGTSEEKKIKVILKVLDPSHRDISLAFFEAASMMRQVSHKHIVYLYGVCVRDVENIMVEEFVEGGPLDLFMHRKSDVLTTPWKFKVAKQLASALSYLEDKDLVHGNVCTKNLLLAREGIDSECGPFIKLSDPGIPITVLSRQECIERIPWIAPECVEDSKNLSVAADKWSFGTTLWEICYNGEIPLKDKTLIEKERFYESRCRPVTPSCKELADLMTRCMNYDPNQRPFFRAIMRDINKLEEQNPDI

[4] = Pharmacokinetic study in cynomolgus monkeys; format: in vivo; conditions: cynomolgus monkey, plasma; for Vd: read-out: Vdss
Procedure: as §1

TYK2 (JH2 domain) = TYK2 (JH2 domain) (Homo sapiens (Human), UniProt P29597); experiment: TYK2 JH2 domain binding assay (DiscoverX KINOMEscan); conditions: 11-point 3-fold dilution, duplicate
Sequence of TYK2 (JH2 domain) (P29597 589-875): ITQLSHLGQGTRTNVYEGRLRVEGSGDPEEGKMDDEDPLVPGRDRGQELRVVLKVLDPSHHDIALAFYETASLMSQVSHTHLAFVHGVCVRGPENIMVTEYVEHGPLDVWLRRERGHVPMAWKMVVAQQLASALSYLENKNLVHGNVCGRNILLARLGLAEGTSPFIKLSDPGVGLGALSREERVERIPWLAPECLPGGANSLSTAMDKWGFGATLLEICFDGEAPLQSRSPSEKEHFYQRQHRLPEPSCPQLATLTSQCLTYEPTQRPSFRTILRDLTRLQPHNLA

[5] = Pharmacokinetic study in Beagle dogs; format: in vivo; conditions: dog, plasma; for Vd: read-out: Vdss
Procedure: as §1

[6] = tested on: GM-CSF-induced pSTAT5 in human PBMC; experiment: GM-CSF-induced pSTAT5 in human PBMC; format: cell-based; conditions: GM-CSF 10 ng/ml
Procedure: as §2, §3, §4, §5

[7] = Pharmacokinetic study in C57BL/6 mice; format: in vivo; set-up: AUC: unit not given here
Procedure: as §1

[8] = Oral (5 mg/kg), read-out: C0 or Cmax (Cmax)
[9] = iv, I.V. (1 mg/kg), read-out: C0 or Cmax (C0)
[10] = Oral (2 mg/kg), NA: no detectable
[11] = intravenous, printed on the Oral (2 mg/kg) line (probably belongs to I.V. 1 mg/kg)
[12] = Oral (2 mg/kg), read-out: C0 or Cmax (Cmax)
[13] = male, mouse, plasma, Oral (10 mg/kg)
[14] = male, mouse, plasma, iv, I.V. (2 mg/kg)

Sequence of JAK2 (JH1 domain) (O60674 849-1124): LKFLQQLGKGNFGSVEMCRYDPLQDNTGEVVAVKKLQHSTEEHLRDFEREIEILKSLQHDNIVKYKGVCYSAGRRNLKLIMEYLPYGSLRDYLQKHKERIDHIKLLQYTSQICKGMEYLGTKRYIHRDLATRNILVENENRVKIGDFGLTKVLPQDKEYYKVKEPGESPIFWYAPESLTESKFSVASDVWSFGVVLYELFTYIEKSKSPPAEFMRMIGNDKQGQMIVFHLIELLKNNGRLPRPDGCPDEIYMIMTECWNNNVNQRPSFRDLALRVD

Structure (SMILES) | IC50 [1] [µM] | Kd (JAK2 (JH1 domain)) [µM] | AUC ([2]; Oral (5 mg/kg)) [µg·h/mL] | Tmax ([2]; Oral (5 mg/kg)) [h] | bioavailability ([2]; Oral (5 mg/kg)) [%] | half-life ([2]; Oral (5 mg/kg)) [h] | Cmax [2, 8] [µg/mL] | AUC ([2]; iv, I.V. (1 mg/kg)) [µg·h/mL] | clearance ([2]; iv, I.V. (1 mg/kg)) [L/h/kg] | half-life ([2]; iv, I.V. (1 mg/kg)) [h] | Cmax [2, 9] [µg/mL] | Vd ([2]; iv, I.V. (1 mg/kg)) [L/kg] | IC50 [3] [µM] | Kd (JAK1 (JH2 domain)) [µM] | AUC ([4]; iv, I.V. (1 mg/kg)) [µg·h/mL] | half-life ([4]; iv, I.V. (1 mg/kg)) [h] | Cmax [4, 9] [µg/mL] | Kd (TYK2 (JH2 domain)) [µM] | AUC ([5]; Oral (2 mg/kg)) [µg·h/mL] | IC50 [6] [µM] | further results
[2H]C([2H])([2H])CC(=O)c1cnc(Nc2ccc(C(C)(C)O)c(F)n2)cc1Nc1nccc(-c2ncn(C([2H])([2H])[2H])n2)c1OC [Example 201] | < 0.1 | 0.1 to 1 | 0.499 ± 0.502 | 0.42 ± 0.14 | 18.7 ± 18.9 | 1.14 ± 0.2 | 0.185 ± 0.138 | 0.533 ± 0.225 | 2.06 ± 0.72 | 0.759 ± 0.6 | 1.19 ± 0.116 | 1.31 ± 0.42 | 0.1 to 1 | < 0.1 | 0.726 ± 0.134 | 1.81 ± 0.76 | 0.849 ± 0.05 | ≤ 0.001 | 0.442 ± 0.081 | 0.1 to 1 | AUC [4, 10]: 0.0679 ± 0.021 µg·h/mL; Tmax [4, 10]: 2.33 ± 1.5 h; bioavailability [4, 10]: 4.67 ± 1.5%; half-life [4, 10]: 3.08 ± 0.66 h; Cmax ([4]; Oral (2 mg/kg), NA: no detectable, read-out: C0 or Cmax (Cmax)): 0.0139 ± 0.002 µg/mL; clearance [4, 11]: 1.39 ± 0.258 L/h/kg; Vd [4, 11]: 1.47 ± 0.1 L/kg; Tmax ([5]; Oral (2 mg/kg)): 2 h; bioavailability ([5]; Oral (2 mg/kg)): 38.5 ± 7.1%; half-life ([5]; Oral (2 mg/kg)): 5.05 ± 0.47 h; Cmax [5, 12]: 0.103 ± 0.028 µg/mL; AUC ([5]; iv, I.V. (1 mg/kg)): 0.575 ± 0.158 µg·h/mL; clearance ([5]; iv, I.V. (1 mg/kg)): 1.76 ± 0.481 L/h/kg; half-life ([5]; iv, I.V. (1 mg/kg)): 4.54 ± 1.26 h; Cmax [5, 9]: 0.458 ± 0.336 µg/mL; Vd ([5]; iv, I.V. (1 mg/kg)): 7.41 ± 2.64 L/kg
[2H]C([2H])([2H])CC(=O)c1cnc(Nc2ccc(C(C)(C)O)c(F)n2)cc1Nc1cccc(-c2ncn(C([2H])([2H])[2H])n2)c1OC [Example 202] | < 0.1 | 0.1 to 1 | 0.21 ± 0.06 | 4 ± 2 | 8.35 ± 2.4 | 1.29 ± 0.24 | 0.0501 ± 0.011 | 0.504 ± 0.058 | 1.99 ± 0.24 | 0.323 ± 0.035 | 1.98 ± 0.101 | 0.653 ± 0.03 | 0.1 to 1 | < 0.1 | – | – | – | ≤ 0.001 | 0.555 ± 0.154 | 0.1 to 1 | AUC ([7]; I.V. (2 mg/kg)): 1911; AUC ([7]; Oral (10 mg/kg)): 6395; Tmax [7, 13]: 0.5 h; bioavailability [7, 13]: 66.6%; half-life [7, 13]: 3.27 h; Cmax ([7]; male, mouse, plasma, Oral (10 mg/kg), read-out: C0 or Cmax (Cmax)): 1.9 µg/mL; clearance [7, 14]: 1.04 L/h/kg; half-life [7, 14]: 0.97 h; Cmax ([7]; male, mouse, plasma, iv, I.V. (2 mg/kg), read-out: C0 or Cmax (C0)): 3.34 µg/mL; Vd ([7]; male, mouse, plasma, iv, I.V. (2 mg/kg), read-out: Vdss): 0.785 L/kg; Tmax ([5]; Oral (2 mg/kg)): 1 h; bioavailability ([5]; Oral (2 mg/kg)): 55 ± 15%; half-life ([5]; Oral (2 mg/kg)): 1.59 ± 0.15 h; Cmax [5, 12]: 0.156 ± 0.053 µg/mL; AUC ([5]; iv, I.V. (1 mg/kg)): 0.504 ± 0.049 µg·h/mL; clearance ([5]; iv, I.V. (1 mg/kg)): 1.96 ± 0.186 L/h/kg; half-life ([5]; iv, I.V. (1 mg/kg)): 1.74 ± 0.28 h; Cmax [5, 9]: 0.469 ± 0.255 µg/mL; Vd ([5]; iv, I.V. (1 mg/kg)): 4.21 ± 0.19 L/kg
[2H]C([2H])([2H])CC(=O)c1cnc(Nc2ccc(C(O)(C([2H])([2H])[2H])C([2H])([2H])[2H])c(F)n2)cc1Nc1ncccc1S(C)(=O)=O [Example 203] | < 0.1 | – | – | – | – | – | – | – | – | – | – | – | 0.1 to 1 | – | 0.595 ± 0.048 | 0.951 ± 0.22 | 0.787 ± 0.061 | – | – | 1 to 10 | clearance ([4]; iv, I.V. (1 mg/kg)): 1.66 ± 0.114 L/h/kg; Vd ([4]; iv, I.V. (1 mg/kg)): 0.931 ± 0.01 L/kg

— patent publication US11053219B2, “Substituted pyridines as TYK2 inhibitors” (FronThera U.S. Pharmaceuticals LLC, priority 2018, dated 2021)
